In US20070225308A1, “2-Amino Quinazoline Derivative” (Kyowa Hakko Kogyo Co.,Ltd., priority 2004, published 2007):

How the values were obtained:
[1] = target: T1, recombinant human PDE-IV (HSPDE4A) (Homo sapiens, UniProt P27815); assay: Recombinant Human PDE-IV-Inhibiting Test; assay type: biochemical; conditions: at the concentration of 0.1 μmol/L; substrate [3H]cAMP 1 μmol/L; read-out: enzyme-inhibitory activity
T1 construct: made in house; host or cells: Sf9 insect cells
Procedure: Recombinant Human PDE-IV-Inhibiting Test
A human PDE cDNA (HSPDE4A) was isolated from HL-60 cells. An expected amino acid sequence thereof is the same as the sequence (HSPDE4A4) reported by Bolger G., et al (Mol. Cell. Biol., 1993, Vol. 13, p. 6558). The recombinant protein was expressed, using Sf9 insect cells. The PDE activity was measured according to the following two-step process, based on the method by Kincid R. L. and Manganiello V. C. (Method. Enzymol., 1988, Vol. 159, p. 457). [^3H]cAMP (final concentration: 1 μmol/L) was used as the substrate. The reaction was performed in a standard, mixture containing N,N-bis(2-hydroxyethyl)-2-aminoethanesulfonic acid (50 mmol/L, pH 7.2), magnesium chloride (1 mmol/L) and soybean trypsin inhibitor (0.1 mg/mL). The reaction was started by the addition of enzyme, and the reaction mixture was incubated at 30° C. for 10 to 30 minutes. The reaction was stopped by hydrochloric acid, and the formed 5′-AMP was completely decomposed by 5′-nucleotidase. The resulting mixture was treated with chromatography of DEAE-Sephadex A-25, and the eluted [^3H]adenosine was counted with a scintillation counter. The test compounds were dissolved in DMSO, and added to the system (concentration 1.7%).

T1 sequence (P27815 whole entry): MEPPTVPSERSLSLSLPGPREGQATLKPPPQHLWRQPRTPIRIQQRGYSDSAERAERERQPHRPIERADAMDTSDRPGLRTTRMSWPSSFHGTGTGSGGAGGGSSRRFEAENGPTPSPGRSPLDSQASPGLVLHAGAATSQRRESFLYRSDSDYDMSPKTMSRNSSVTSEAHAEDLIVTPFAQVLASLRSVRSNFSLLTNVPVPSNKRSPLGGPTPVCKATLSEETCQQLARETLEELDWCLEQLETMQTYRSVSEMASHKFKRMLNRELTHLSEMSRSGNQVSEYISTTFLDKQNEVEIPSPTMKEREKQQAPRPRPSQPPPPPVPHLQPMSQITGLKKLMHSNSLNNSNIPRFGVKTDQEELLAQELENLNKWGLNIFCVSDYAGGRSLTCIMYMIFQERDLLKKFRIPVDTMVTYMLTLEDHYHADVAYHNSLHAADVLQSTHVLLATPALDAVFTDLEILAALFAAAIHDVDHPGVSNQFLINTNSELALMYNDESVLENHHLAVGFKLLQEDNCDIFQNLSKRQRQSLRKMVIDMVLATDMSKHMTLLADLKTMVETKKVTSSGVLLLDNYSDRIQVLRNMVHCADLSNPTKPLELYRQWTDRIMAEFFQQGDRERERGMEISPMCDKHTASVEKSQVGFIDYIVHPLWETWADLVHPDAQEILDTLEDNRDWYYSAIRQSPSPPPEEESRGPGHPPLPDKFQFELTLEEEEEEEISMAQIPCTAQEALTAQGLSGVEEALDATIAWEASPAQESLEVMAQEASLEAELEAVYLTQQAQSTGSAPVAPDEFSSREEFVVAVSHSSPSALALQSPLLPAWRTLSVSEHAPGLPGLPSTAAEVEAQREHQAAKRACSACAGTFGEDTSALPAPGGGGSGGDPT

| inhibition at 0.1 µM [1] [%] | melting point [°C] | SMILES |
| --- | --- | --- |
| ≥ 50 |  | COc1c(-c2ccc(C(=O)O)cc2)cc(-c2cccc([N+](=O)[O-])c2)c2cnc(N)nc12 [Compound 12, 2-Amino-7-(4-carboxyphenyl)-8-methoxy-5-(3-nitrophenyl)quinazoline] |
|  | 291 to 296 | CNc1ncc2c(-c3cccc(Cl)c3)cc(-c3ccc(C(=O)O)cc3)c(O)c2n1 [Compound 112, 7-(4-Carboxyphenyl)-5-(3-chlorophenyl)-8-hydroxy-2-(methylamino)quinazoline] |
| ≥ 50 |  | COc1c(-c2cccc(C(=O)O)c2)cc(-c2cccc(Cl)c2)c2cnc(N(C)C)nc12 [Compound 37, 7-(3-Carboxyphenyl)-5-(3-chlorophenyl)-2-dimethylamino-8-methoxyquinazoline] |
|  | 258 to 261 | CNc1ncc2c(-c3cccc(Cl)c3)cc(-c3cccc(CC(=O)O)c3)c(OC)c2n1 [Compound 59, 7-[3-(Carboxymethyl)phenyl]-5-(3-chlorophenyl)-8-methoxy-2-(methylamino)quinazoline] |
| ≥ 50 |  | COc1c(-c2ccc(C(=O)O)cc2)cc(-c2cccc(Cl)c2)c2cnc(N(C)C)nc12 [Compound 15, 7-(4-Carboxyphenyl)-5-(3-chlorophenyl)-2-dimethylamino-8-methoxyquinazoline] |
|  | 291 to 295 | CNc1ncc2c(-c3cccc(Cl)c3)cc(/C=C/C(=O)O)c(OC)c2n1 [Compound 95, 7-[E-(2-carboxyethenyl)]-5-(3-chlorophenyl)-8-methoxy-2-(methylamino)quinazoline] |

The remaining lines, values behind:

| SMILES | inhibition at 0.1 µM [1] [%] | melting point [°C] |
| --- | --- | --- |
| CNc1ncc2c(-c3cccc(Cl)c3)cc(-c3ccc(C(=O)O)cc3)c(OC)c2n1 [Compound 18, 7-(4-Carboxyphenyl)-5-(3-chlorophenyl)-8-methoxy-2-(methylamino)quinazoline] | ≥ 50 |  |
| CNc1ncc2c(-c3cncc(Cl)c3)cc(-c3ccc(C(=O)O)cc3)c(OC)c2n1 [Compound 20, 7-(4-Carboxyphenyl)-5-(5-chloropyridine-3-yl)-8-methoxy-2-(methylamino)quinazoline] | ≥ 50 |  |
| COc1c(-c2ccc(C(=O)O)cc2)cc(-c2cccc([N+](=O)[O-])c2)c2cnc(N(C)C)nc12 [Compound 14, 7-(4-Carboxyphenyl)-2-dimethylamino-8-methoxy-5-(3-nitrophenyl)quinazoline] | ≥ 50 |  |
| CNc1ncc2c(-c3cccc(C#N)c3)cc(-c3ccc(C(=O)O)cc3)c(OC)c2n1 [Compound 19, 7-(4-Carboxyphenyl)-5-(3-cyanophenyl)-8-methoxy-2-(methylamino)quinazoline] | ≥ 50 |  |
| COc1c(-c2ccc(C(=O)O)cc2)cc(-c2cccc(Cl)c2)c2cnc(N)nc12 [Compound 13, 2-Amino-7-(4-carboxyphenyl)-5-(3-chlorophenyl)-8-methoxyquinazoline] | ≥ 50 |  |
| COc1c(C2=CCNCC2)cc(-c2cccc(Cl)c2)c2cnc(N(C)C)nc12 [Compound 43, 5-(3-Chlorophenyl)-2-dimethylamino-8-methoxy-7-(1,2,5,6-tetrahydropyridine-4-yl)quinazoline] | ≥ 50 |  |
| CNc1ncc2c(-c3cccc(Cl)c3)cc(CCC(=O)O)c(OC)c2n1 [Compound 35, 7-(2-Carboxyethyl)-5-(3-chlorophenyl)-8-methoxy-2-(methylamino)quinazoline] | ≥ 50 |  |
| CNc1ncc2c(-c3cccc(Cl)c3)cc(-c3ccc(CCC(=O)O)cc3)c(OC)c2n1 [Compound 55, 7-[4(2-Carboxyethyl)phenyl]-5-(3-chlorophenyl)-8-methoxy-2-(methylamino)quinazoline] |  | 208 to 213 |
